Results from US20260242419A1, “A CYCLIC PEPTIDE FOR TRAPPING INTERLEUKIN-1 BETA” (Merck Sharp & Dohme LLC, priority 2023, published 2026).
Starred links: 1 amine or outer side, 2 acyl side, 3 side chain; linkers in the order of their positions; H or OH if unused. Non-standard residues stand in square brackets, D forms with d. Residues, ends and D or L forms follow the SMILES beside them. Trp(4-Cl)(βS-Me) = C[C@@H](c1c[nH]c2cccc(Cl)c12)[C@H](N)C(=O)O; dPro(4R-(4-pyridylmethyl)) = O=C(O)[C@H]1C[C@@H](Cc2ccncc2)CN1; Trp(βS-Me,4-F) = C[C@@H](c1c[nH]c2cccc(F)c12)[C@H](N)C(=O)O; Bip(4'-COOH) = N[C@@H](Cc1ccc(-c2ccc(C(=O)O)cc2)cc1)C(=O)O; Ala(1-bicyclo(1.1.1)pentyl) = N[C@@H](CC12CC(C1)C2)C(=O)O; Phe(4-(4-pyridyl)) = N[C@@H](Cc1ccc(-c2ccncc2)cc1)C(=O)O; dPro(3S-(4-F-Bn)) = O=C(O)[C@@H]1NCC[C@@H]1Cc1ccc(F)cc1; 1Nal(3S-Me) = C[C@@H](c1cccc2ccccc12)[C@H](N)C(=O)O; X40 = O=C([C@H](Cc1ccc(-c2cncnc2)cc1)N[*:1])[*:2]; X4 = O=C([C@H]1[C@@H](Cc2ccncc2)CCN1[*:1])[*:2]; Ala(morpholin-4-yl) = N[C@@H](CN1CCOCC1)C(=O)O; Ala(piperazin-1-yl) = N[C@@H](CN1CCNCC1)C(=O)O; Ala(pyrimidin-5-yl) = N[C@@H](Cc1cncnc1)C(=O)O; Phe(4-COOH) = N[C@@H](Cc1ccc(C(=O)O)cc1)C(=O)O; Bip = N[C@@H](Cc1ccc(-c2ccccc2)cc1)C(=O)O; Pro(cis-4-F) = O=C(O)[C@@H]1C[C@H](F)CN1; Ala(4-THP) = N[C@@H](CC1CCOCC1)C(=O)O; X6 = O=C([C@H](Cc1ccncn1)N[*:1])[*:2]; d(αMeD) = C[C@@](N)(CC(=O)O)C(=O)O; 4Pal = N[C@@H](Cc1ccncc1)C(=O)O; aThr = C[C@H](O)[C@H](N)C(=O)O; Dab = NCC[C@H](N)C(=O)O; Aib = CC(C)(N)C(=O)O

Target: T1, IL-1β (Homo sapiens, UniProt P01584)
T1 construct: purchased BioLegend 579404
T1 sequence (P01584 117-269): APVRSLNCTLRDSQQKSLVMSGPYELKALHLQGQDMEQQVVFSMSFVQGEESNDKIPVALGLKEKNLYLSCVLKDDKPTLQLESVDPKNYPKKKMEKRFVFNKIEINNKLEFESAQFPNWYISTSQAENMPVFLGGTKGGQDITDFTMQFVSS
Test: IL-6 assay in MRC5 cells: inhibition of IL-1β induced IL-6 secretion (AlphaLISA)
Type: cell-based
Settings: inhibition of IL-1β induced IL-6 secretion in MRC5 cells; compound pre-incubated 1 hour with recombinant human IL-1β; read-out: MRC5 IC50
Method in brief: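 Compound was pre-incubated 1 h at ambient temperature with recombinant human IL-1β at 2λ EC80 before adding human lung fibroblast MRC5 cells (3000/well) in EMEM with 0.025% BSA. After overnight culture at 37 °C, 5% CO2, secreted IL-6 in conditioned medium was measured by AlphaLISA; IC50 from 4-parameter logistic fits.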

IC50 [nM]	Compound
0.014	C[C@@H](c1c[nH]c2cccc(F)c12)[C@@H]1NC(=O)[C@@H]2C[C@H](F)CN2C(=O)CNC(=O)[C@H](Cc2ccc(C(=O)O)cc2)NC(=O)[C@H](Cc2ccncc2)NC(=O)[C@H](Cc2ccc(-c3cncnc3)cc2)NC(=O)[C@H]2[C@@H](Cc3ccc(F)cc3)CCN2C(=O)CNC(=O)[C@H](CCN)NC(=O)[C@H](CCC(N)=O)NC(=O)[C@H](Cc2cncnc2)NC(=O)[C@@](C)(CC(=O)O)NC(=O)[C@H](Cc2c[nH]c3ccccc23)NC(=O)[C@H](CO)NC(=O)C(C)(C)NC1=O [Example 282] (cyclo([X40][4Pal][Phe(4-COOH)]G[Pro(cis-4-F)][Trp(βS-Me,4-F)][Aib]SW[d(αMeD)][Ala(pyrimidin-5-yl)]Q[Dab]G[dPro(3S-(4-F-Bn))]))
0.016	C[C@@H](c1c[nH]c2cccc(F)c12)[C@@H]1NC(=O)[C@@H]2C[C@H](F)CN2C(=O)CNC(=O)[C@H](Cc2ccc(C(=O)O)cc2)NC(=O)[C@H](Cc2ccncc2)NC(=O)[C@H](Cc2ccc(-c3ccncc3)cc2)NC(=O)[C@H]2[C@@H](Cc3ccc(F)cc3)CCN2C(=O)CNC(=O)[C@H](CCN)NC(=O)[C@H](CCC(N)=O)NC(=O)[C@H](Cc2cncnc2)NC(=O)[C@@](C)(CC(=O)O)NC(=O)[C@H](Cc2c[nH]c3ccccc23)NC(=O)[C@H](CO)NC(=O)C(C)(C)NC1=O [Example 283] (cyclo([Phe(4-(4-pyridyl))][4Pal][Phe(4-COOH)]G[Pro(cis-4-F)][Trp(βS-Me,4-F)][Aib]SW[d(αMeD)][Ala(pyrimidin-5-yl)]Q[Dab]G[dPro(3S-(4-F-Bn))]))
0.015	C[C@@H](c1c[nH]c2cccc(F)c12)[C@@H]1NC(=O)[C@@H]2C[C@H](F)CN2C(=O)CNC(=O)[C@H](Cc2ccc(C(=O)O)cc2)NC(=O)[C@H](CC23CC(C2)C3)NC(=O)[C@H](Cc2ccc(-c3ccc(C(=O)O)cc3)cc2)NC(=O)[C@H]2[C@@H](Cc3ccncc3)CCN2C(=O)CNC(=O)[C@H](CCN)NC(=O)[C@H](CCC(N)=O)NC(=O)[C@H](Cc2ccncn2)NC(=O)[C@@](C)(CC(=O)O)NC(=O)[C@H](Cc2c[nH]c3ccccc23)NC(=O)[C@H](CO)NC(=O)C(C)(C)NC1=O [Example 284] (cyclo([Bip(4'-COOH)][Ala(1-bicyclo(1.1.1)pentyl)][Phe(4-COOH)]G[Pro(cis-4-F)][Trp(βS-Me,4-F)][Aib]SW[d(αMeD)][X6]Q[Dab]G[X4]))
0.013	C[C@@H](c1c[nH]c2cccc(F)c12)[C@@H]1NC(=O)[C@@H]2C[C@H](F)CN2C(=O)CNC(=O)[C@H](Cc2ccc(C(=O)O)cc2)NC(=O)[C@H](CC23CC(C2)C3)NC(=O)[C@H](Cc2ccc(-c3ccc(C(=O)O)cc3)cc2)NC(=O)[C@H]2C[C@@H](Cc3ccncc3)CN2C(=O)CNC(=O)[C@H](CCN)NC(=O)[C@H](CCC(N)=O)NC(=O)[C@H](Cc2ccncn2)NC(=O)[C@@](C)(CC(=O)O)NC(=O)[C@H](Cc2c[nH]c3ccccc23)NC(=O)[C@H](CO)NC(=O)C(C)(C)NC1=O [Example 285] (cyclo([Bip(4'-COOH)][Ala(1-bicyclo(1.1.1)pentyl)][Phe(4-COOH)]G[Pro(cis-4-F)][Trp(βS-Me,4-F)][Aib]SW[d(αMeD)][X6]Q[Dab]G[dPro(4R-(4-pyridylmethyl))]))
0.01	C[C@@H](c1c[nH]c2cccc(F)c12)[C@@H]1NC(=O)[C@@H]2C[C@H](F)CN2C(=O)CNC(=O)[C@H](Cc2ccc(C(=O)O)cc2)NC(=O)[C@H](Cc2ccncc2)NC(=O)[C@H](Cc2ccc(-c3ccc(C(=O)O)cc3)cc2)NC(=O)[C@H]2[C@@H](Cc3ccc(F)cc3)CCN2C(=O)CNC(=O)[C@H](CCN)NC(=O)[C@H](CCC(N)=O)NC(=O)[C@H](CN2CCOCC2)NC(=O)[C@@](C)(CC(=O)O)NC(=O)[C@H](Cc2c[nH]c3ccccc23)NC(=O)[C@H](CO)NC(=O)C(C)(C)NC1=O [Example 286] (cyclo([Bip(4'-COOH)][4Pal][Phe(4-COOH)]G[Pro(cis-4-F)][Trp(βS-Me,4-F)][Aib]SW[d(αMeD)][Ala(morpholin-4-yl)]Q[Dab]G[dPro(3S-(4-F-Bn))]))
0.011	C[C@@H](c1c[nH]c2cccc(F)c12)[C@@H]1NC(=O)[C@@H]2C[C@H](F)CN2C(=O)CNC(=O)[C@H](Cc2ccc(C(=O)O)cc2)NC(=O)[C@H](Cc2ccncc2)NC(=O)[C@H](Cc2ccc(-c3ccc(C(=O)O)cc3)cc2)NC(=O)[C@H]2[C@@H](Cc3ccc(F)cc3)CCN2C(=O)CNC(=O)[C@H](CCN)NC(=O)[C@H](CCC(N)=O)NC(=O)[C@H](CN2CCNCC2)NC(=O)[C@@](C)(CC(=O)O)NC(=O)[C@H](Cc2c[nH]c3ccccc23)NC(=O)[C@H](CO)NC(=O)C(C)(C)NC1=O [Example 287] (cyclo([Bip(4'-COOH)][4Pal][Phe(4-COOH)]G[Pro(cis-4-F)][Trp(βS-Me,4-F)][Aib]SW[d(αMeD)][Ala(piperazin-1-yl)]Q[Dab]G[dPro(3S-(4-F-Bn))]))
0.019	C[C@H](O)[C@@H]1NC(=O)[C@@](C)(CC(=O)O)NC(=O)[C@H](Cc2c[nH]c3ccccc23)NC(=O)[C@H](CO)NC(=O)C(C)(C)NC(=O)[C@H]([C@@H](C)c2cccc3ccccc23)NC(=O)[C@@H]2C[C@H](F)CN2C(=O)CNC(=O)[C@H](Cc2ccc(C(=O)O)cc2)NC(=O)[C@H](Cc2ccncc2)NC(=O)[C@H](Cc2ccc(-c3ccccc3)cc2)NC(=O)[C@H]2C[C@@H](Cc3ccncc3)CN2C(=O)CNC(=O)[C@H](CCN)NC(=O)[C@H](CCC(N)=O)NC1=O [Example 288] (cyclo([Bip][4Pal][Phe(4-COOH)]G[Pro(cis-4-F)][1Nal(3S-Me)][Aib]SW[d(αMeD)][aThr]Q[Dab]G[dPro(4R-(4-pyridylmethyl))]))
0.015	C[C@H](O)[C@@H]1NC(=O)[C@@](C)(CC(=O)O)NC(=O)[C@H](Cc2c[nH]c3ccccc23)NC(=O)[C@H](CO)NC(=O)C(C)(C)NC(=O)[C@H]([C@@H](C)c2c[nH]c3cccc(Cl)c23)NC(=O)[C@@H]2C[C@H](F)CN2C(=O)CNC(=O)[C@H](Cc2ccc(C(=O)O)cc2)NC(=O)[C@H](Cc2ccncc2)NC(=O)[C@H](Cc2ccc(-c3ccccc3)cc2)NC(=O)[C@H]2C[C@@H](Cc3ccncc3)CN2C(=O)CNC(=O)[C@H](CCN)NC(=O)[C@H](CCC(N)=O)NC1=O [Example 289] (cyclo([Bip][4Pal][Phe(4-COOH)]G[Pro(cis-4-F)][Trp(4-Cl)(βS-Me)][Aib]SW[d(αMeD)][aThr]Q[Dab]G[dPro(4R-(4-pyridylmethyl))]))
0.018	C[C@@H](c1cccc2ccccc12)[C@@H]1NC(=O)[C@@H]2C[C@H](F)CN2C(=O)CNC(=O)[C@H](Cc2ccc(C(=O)O)cc2)NC(=O)[C@H](Cc2ccncc2)NC(=O)[C@H](Cc2ccc(-c3ccccc3)cc2)NC(=O)[C@H]2C[C@@H](Cc3ccncc3)CN2C(=O)CNC(=O)[C@H](CCN)NC(=O)[C@H](CCC(N)=O)NC(=O)[C@H](CC2CCOCC2)NC(=O)[C@@](C)(CC(=O)O)NC(=O)[C@H](Cc2c[nH]c3ccccc23)NC(=O)[C@H](CO)NC(=O)C(C)(C)NC1=O [Example 290] (cyclo([Bip][4Pal][Phe(4-COOH)]G[Pro(cis-4-F)][1Nal(3S-Me)][Aib]SW[d(αMeD)][Ala(4-THP)]Q[Dab]G[dPro(4R-(4-pyridylmethyl))]))
0.018	C[C@@H](c1cccc2ccccc12)[C@@H]1NC(=O)[C@@H]2C[C@H](F)CN2C(=O)CNC(=O)[C@H](Cc2ccc(C(=O)O)cc2)NC(=O)[C@H](Cc2ccncc2)NC(=O)[C@H](Cc2ccc(-c3ccccc3)cc2)NC(=O)[C@H]2C[C@@H](Cc3ccncc3)CN2C(=O)CNC(=O)[C@H](CCN)NC(=O)[C@H](CCC(N)=O)NC(=O)[C@H](Cc2cncnc2)NC(=O)[C@@](C)(CC(=O)O)NC(=O)[C@H](Cc2c[nH]c3ccccc23)NC(=O)[C@H](CO)NC(=O)C(C)(C)NC1=O [Example 291] (cyclo([Bip][4Pal][Phe(4-COOH)]G[Pro(cis-4-F)][1Nal(3S-Me)][Aib]SW[d(αMeD)][Ala(pyrimidin-5-yl)]Q[Dab]G[dPro(4R-(4-pyridylmethyl))]))
0.015	C[C@@H](c1c[nH]c2cccc(Cl)c12)[C@@H]1NC(=O)[C@@H]2C[C@H](F)CN2C(=O)CNC(=O)[C@H](Cc2ccc(C(=O)O)cc2)NC(=O)[C@H](Cc2ccncc2)NC(=O)[C@H](Cc2ccc(-c3ccccc3)cc2)NC(=O)[C@H]2C[C@@H](Cc3ccncc3)CN2C(=O)CNC(=O)[C@H](CCN)NC(=O)[C@H](CCC(N)=O)NC(=O)[C@H](Cc2cncnc2)NC(=O)[C@@](C)(CC(=O)O)NC(=O)[C@H](Cc2c[nH]c3ccccc23)NC(=O)[C@H](CO)NC(=O)C(C)(C)NC1=O [Example 292] (cyclo([Bip][4Pal][Phe(4-COOH)]G[Pro(cis-4-F)][Trp(4-Cl)(βS-Me)][Aib]SW[d(αMeD)][Ala(pyrimidin-5-yl)]Q[Dab]G[dPro(4R-(4-pyridylmethyl))]))
0.01	C[C@H](O)[C@@H]1NC(=O)[C@@](C)(CC(=O)O)NC(=O)[C@H](Cc2c[nH]c3ccccc23)NC(=O)[C@H](CO)NC(=O)C(C)(C)NC(=O)[C@H]([C@@H](C)c2c[nH]c3cccc(F)c23)NC(=O)[C@@H]2C[C@H](F)CN2C(=O)CNC(=O)[C@H](Cc2ccc(C(=O)O)cc2)NC(=O)[C@H](Cc2ccncc2)NC(=O)[C@H](Cc2ccc(-c3ccccc3)cc2)NC(=O)[C@H]2C[C@@H](Cc3ccncc3)CN2C(=O)CNC(=O)[C@H](CCN)NC(=O)[C@H](CCC(N)=O)NC1=O [Example 293] (cyclo([Bip][4Pal][Phe(4-COOH)]G[Pro(cis-4-F)][Trp(βS-Me,4-F)][Aib]SW[d(αMeD)][aThr]Q[Dab]G[dPro(4R-(4-pyridylmethyl))]))
0.014	C[C@@H](c1c[nH]c2cccc(F)c12)[C@@H]1NC(=O)[C@@H]2C[C@H](F)CN2C(=O)CNC(=O)[C@H](Cc2ccc(C(=O)O)cc2)NC(=O)[C@H](Cc2ccncc2)NC(=O)[C@H](Cc2ccc(-c3ccccc3)cc2)NC(=O)[C@H]2C[C@@H](Cc3ccncc3)CN2C(=O)CNC(=O)[C@H](CCN)NC(=O)[C@H](CCC(N)=O)NC(=O)[C@H](CC2CCOCC2)NC(=O)[C@@](C)(CC(=O)O)NC(=O)[C@H](Cc2c[nH]c3ccccc23)NC(=O)[C@H](CO)NC(=O)C(C)(C)NC1=O [Example 294] (cyclo([Bip][4Pal][Phe(4-COOH)]G[Pro(cis-4-F)][Trp(βS-Me,4-F)][Aib]SW[d(αMeD)][Ala(4-THP)]Q[Dab]G[dPro(4R-(4-pyridylmethyl))]))
